{
  "source": "patent US6214882A",
  "about": "“Benzenesulphonamide derivatives, preparation thereof and therapeutical uses thereof” (Synthelabo, priority 1995, dated 2001)",
  "key": {"urethral smooth muscles": {"tested_on": "urethral smooth muscles", "test": "in vitro contraction of rabbit urethra rings", "format": "cell-based", "conditions": "Oryctolagus cuniculus, read-out: urethral pD2 (converted)", "method": "(§1) The in vitro activity of the compounds of the invention was studied on urethral and arterial smooth muscles.\n(§2) These experiments were carried out on female New Zealand rabbits weighing from 3 to 3.5 kg. The animals were killed by vertebral dislocation, and rings of tissue were then removed from mesenteric arteries and from the urethra. These rings of tissue were immersed in a modified Krebs solution and oxygenated with a mixture of 95% O2 and 5% CO2. Each sample of tissue was subjected to a tension of 1 g, phenylephrine was then introduced at cumulative doses and the dose/response curve was established. After rinsing of the samples, the test compound was introduced at cumulative doses and the dose/response curve was established. The α1 -adrenergic effect of each compound is evaluated by calculating the pD2 (negative logarithm of the concentration of antagonist in the presence of which the effect of a dose of the agonist is divided by 2), as well as by the maximum effect representing the percentage of the maximum contraction obtained with phenylephrine (% Emax)"}, "arterial smooth muscles": {"tested_on": "arterial smooth muscles", "test": "in vitro contraction of rabbit mesenteric artery rings", "format": "cell-based", "conditions": "Oryctolagus cuniculus, read-out: arterial pD2 (converted)", "method": "as §1, §2"}},
  "data": [
    {"smiles": "CNC[C@H](O)c1cccc(O)c1", "note": "[phenylephrine]", "values": [
      {"measurement": "EC50", "setting": "urethral smooth muscles", "value": "3.16 to 6.31", "unit": "µM"},
      {"measurement": "EC50", "setting": "arterial smooth muscles", "value": "3.16 to 6.31", "unit": "µM"}
    ]}
  ]
}
